{"source": "patent US11279736B2", "about": "“Conformationally-preorganized, MiniPEG-containing gamma-peptide nucleic acids” (CARNEGIE MELLON UNIVERSITY, priority 2011, dated 2022)", "key": {"[1]": {"test_system": "immobilized complementary DNA", "test": "Surface plasmon resonance (SPR) hybridization kinetics", "assay_type": "binding", "settings": "for association rate constant ka / dissociation rate constant kd: 1:1 binding model; for dissociation rate constant kd: † values approach limits of detection", "protocol": "FIG. 4 illustrates surface plamon resonance (SPR) sensorgrams (solid black lines) and fits (dotted lines) for hybridization of PNA probes to immobilized complementary DNA. Solutions contained 30 nM PNA. Error bars at t=420 sec illustrate standard deviations for three separate trials.\nSurface plasmon resonance (SPR) analysis is used to study the hybridization kinetics of ^R-MPγPNA-DNA and ^R-MPγPNA-RNA duplexes. Briefly, SPR was performed as follows. According to one embodiment, the PNA probe was immobilized to the chip while the DNA target was captured from solution. In another embodiment, a biotinylated version of the DNA target is immobilized on a streptavidin-conjugated, carboxymethylated dextran chip at a relatively low surface density (ca. 100 response units) of DNA targets to limit mass transport effects on the association kinetics. Solutions containing 10-50 nM PNA oligomers are allowed to flow over the chip for about 420 seconds, at which point the flow is switched to a PNA-free buffer to allow net dissociation of the hybridized PNA."}, "[2]": {"test_system": "complementary DNA strand", "test": "UV-melting / van't Hoff analysis of PNA-DNA hybrid duplexes", "assay_type": "binding", "settings": "PNA-DNA duplex; for −ΔG° / −ΔH° / −ΔTS°: averages of three trials", "protocol": "(§1) FIGS. 2A-2B illustrate UV-melting profiles of PNA-DNA (FIG. 2A) and PNA-RNA (FIG. 2B) hybrid duplexes at a strand concentration of […] each in 10 mM sodium phosphate buffer at pH 7.4. While both the heating and cooling runs were performed because they both have nearly identical profiles UV-melting for only the heating runs are shown.\nUV-melting experiments were performed to determine the effect of MP on the thermal stability of PNA oligomers following hybridization to DNA or an RNA. FIG. 3A illustrates that the incorporation of a single miniPEG side-chain stabilized a PNA-DNA duplex by 4° C. […] However, increase in thermal stability tapers off to a value of about 2.3° C. per unit for the fully-modified oligomer, that is an oligomer made up of R-MP-γPNA groups only (e.g., PNA5).\n(§2) Further insights related to the contribution of miniPEG to the stability of the PNA-DNA duplex was obtained from van′t Hoff analysis. Data in Table 2 show the thermodynamic parameters associated with hybridization of PNA1 through 5 to a complementary DNA or RNA strand."}, "[3]": {"test_system": "complementary RNA strand", "test": "UV-melting / van't Hoff analysis of PNA-RNA hybrid duplexes", "assay_type": "binding", "protocol": "as §1\nA similar pattern is observed for a R-MP-γPNA-RNA duplex, but the observed increase in thermal stability is lower for a R-MP-γPNA-RNA duplex as compared to a R-MP-γPNA-DNA duplex (FIG. 3B). The enhancement in thermal stability of a R-MP-γPNA-RNA duplex is only 3° C. for the first R-MP-γPNA-monomer that is incorporated into the PNA oligomer and this gain in thermal stability reduces to about 1.2° C. per R-MP-γPNA monomer for an oligomer made entirely R-MP-γPNA (PNA5). In contrast the gain in thermal stability is about 2.3° C./unit for R-MP-γPNA-DNA duplexes.\nas §2"}, "[4]": {"test": "Temperature-dependent CD measurements of PNA oligomers", "assay_type": "physicochemical", "settings": "80° C.; 5 μM oligomer, 10 mM sodium phosphate buffer pH 7.4", "protocol": "FIG. 1A illustrates CD spectra of PNA5 and PNA2 (Inset) as a function of temperature. Melting transition (Tm) of PNA2 through 5 as determined by CD, monitored at 260 nm. The oligomer concentration was 5 μM, prepared in 10 mM sodium phosphate buffer at pH 7.4."}, "[5]": {"test_system": "DNA: 3′-[…]-5, X = A, C, G, T (SEQ ID NO: 11)", "test": "Sequence mismatch discrimination, thermal stability of PNA-DNA duplexes", "assay_type": "binding", "protocol": "(§3) CD, NMR, and X-ray data have shown that γPNAs derived from L-amino acids adopt a right-handed helix, and that the helix becomes more rigid as more γ-chiral units are added in the backbone. One would therefore expect a fully-modified PNA5 to hybridize to DNA and RNA targets with greater sequence selectivity than PNA1. To verify this hypothesis, thermal stabilities of PNA5-DNA and PNA5-RNA duplexes containing perfectly-matched (PM) and single-base mismatched (MM) targets were determined and compared to those from an earlier study with PNA1-DNA and PNA1-RNA duplexes. […] The ΔTm ranges from −17 to −21° C. for PNA5-DNA and −16 to −20° C. for PNA5-RNA containing a single-base mismatch (X=C, G, T), as compared to −10 to −14° C. for PNA1-DNA and −11 to −18° C. for PNA1-RNA duplex (Table 4). The level of sequence discrimination is greater for PNA5-DNA than for PNA1-DNA, and similar, if not slightly better, for PNA5-RNA as compared to PNA1-RNA."}, "[6]": {"test_system": "RNA: 3′-CGUACAXACU-5, X = A, C, G, U (SEQ ID NO: 12)", "test": "Sequence mismatch discrimination, thermal stability of PNA-RNA duplexes", "assay_type": "binding", "protocol": "as §3"}, "[7]": {"settings": "PNA-RNA duplex, 298 K, UV-melting curve fitting"}}, "note": "[RMPγPNA-N] = PNA unit with R-MP-gamma backbone modification (N: the base)", "data": [{"substance": "H-GCATGTTTGA-NH2 [PNA2] (PNA; 1 R-MP-gamma unit; C-terminal amide; modified_base (6)..(6) R-MP-gamma-backbone modified nucleotide)", "values": [{"measurement": "association kinetics relative to the unmodified PNA", "setting": "[1]; SPR, 30 nM PNA", "result": "approximately twice as fast"}, {"measurement": "association rate constant ka", "setting": "[1]; SPR", "result": 970000, "unit": "M⁻¹ s⁻¹"}, {"measurement": "dissociation rate constant kd", "setting": "[1]; SPR", "result": 0.00041, "unit": "s⁻¹"}, {"measurement": "Kd", "setting": "[1]; SPR, ratio of dissociation and association rate constants, † values uncertain, read-out: equilibrium dissociation constant Kd", "result": 0.42, "unit": "nM"}, {"measurement": "Kd", "setting": "[2]; 298 K, UV melting", "result": 0.32, "unit": "nM"}, {"measurement": "−ΔG°", "setting": "[2]; 298 K", "result": "54 ± 1", "unit": "kJ/mol"}, {"measurement": "−ΔH°", "setting": "[2]; 298 K", "result": "319 ± 18", "unit": "kJ/mol"}, {"measurement": "−ΔTS°", "setting": "[2]; 298 K", "result": "263 ± 16", "unit": "kJ/mol"}, {"measurement": "Kd", "setting": "[3]; [7]", "result": 1.2, "unit": "pM"}, {"measurement": "−ΔG°", "setting": "[3]; [7]", "result": 68, "unit": "kJ/mol"}, {"measurement": "−ΔH°", "setting": "[3]; [7]", "result": 333, "unit": "kJ/mol"}, {"measurement": "−ΔTS°", "setting": "[3]; [7]", "result": 232, "unit": "kJ/mol"}, {"measurement": "CD profile / base-stacking at high temperature", "setting": "[4]", "result": "completely denatured"}]}, {"substance": "H-GCATGTTTGA-NH2 [PNA5] (all [RMPγPNA-N], methylation of C not given here; C-terminal amide)", "values": [{"measurement": "association rate constant ka", "setting": "[1]; SPR", "result": 800000, "unit": "M⁻¹ s⁻¹"}, {"measurement": "dissociation rate constant kd", "setting": "[1]; SPR", "result": "0.4 × 10^−4 ^† s^−1"}, {"measurement": "SPR-derived Kd relative to Kd determined by UV melting experiments", "setting": "[1]; Table 3 versus Table 2, DNA target", "result": 1200, "unit": "fold"}, {"measurement": "Tm", "setting": "[5]; C<>T mismatch", "result": 47, "unit": "°C"}, {"measurement": "ΔTm between the perfect match and mismatch", "setting": "[5]; C<>T mismatch", "result": "(−21) ° C."}, {"measurement": "Tm", "setting": "[5]; G<>T mismatch", "result": 48, "unit": "°C"}, {"measurement": "ΔTm between the perfect match and mismatch", "setting": "[5]; G<>T mismatch", "result": "(−20) ° C."}, {"measurement": "Tm", "setting": "[5]; T(U)<>T mismatch", "result": 51, "unit": "°C"}, {"measurement": "ΔTm between the perfect match and mismatch", "setting": "[5]; T(U)<>T mismatch", "result": "(−17) ° C."}, {"measurement": "Tm", "setting": "[5]; X = A (A-T perfect match)", "result": 68, "unit": "°C"}, {"measurement": "ΔTm, single-base mismatch (X=C, G, T)", "setting": "[5]; range over mismatches", "result": "−17 to −21", "unit": "°C"}, {"measurement": "increase in thermal stability per miniPEG unit", "setting": "[2]; UV-melting", "result": "about 2.3 °C per unit"}, {"measurement": "−ΔG°", "setting": "[2]; 298 K", "result": "78 ± 2", "unit": "kJ/mol"}, {"measurement": "−ΔH°", "setting": "[2]; 298 K", "result": "372 ± 11", "unit": "kJ/mol"}, {"measurement": "−ΔTS°", "setting": "[2]; 298 K", "result": "294 ± 10", "unit": "kJ/mol"}, {"measurement": "gain in thermal stability per R-MP-γPNA monomer", "setting": "[3]; PNA-RNA duplex, UV-melting", "result": "about 1.2 °C per R-MP-γPNA monomer"}, {"measurement": "−ΔG°", "setting": "[3]; [7]", "result": 78, "unit": "kJ/mol"}, {"measurement": "−ΔH°", "setting": "[3]; [7]", "result": 365, "unit": "kJ/mol"}, {"measurement": "−ΔTS°", "setting": "[3]; [7]", "result": 287, "unit": "kJ/mol"}, {"measurement": "differential Tm (ΔTm), RNA versus DNA binding", "setting": "[3]; duplex with RNA compared to duplex with DNA", "result": "identical thermal stability"}, {"measurement": "Tm", "setting": "[6]; C<>T mismatch", "result": 48, "unit": "°C"}, {"measurement": "ΔTm between the perfect match and mismatch", "setting": "[6]; C<>T mismatch", "result": "(−20) ° C."}, {"measurement": "Tm", "setting": "[6]; G<>T mismatch", "result": 52, "unit": "°C"}, {"measurement": "ΔTm between the perfect match and mismatch", "setting": "[6]; G<>T mismatch", "result": "(−16) ° C."}, {"measurement": "Tm", "setting": "[6]; T(U)<>T mismatch", "result": 48, "unit": "°C"}, {"measurement": "ΔTm between the perfect match and mismatch", "setting": "[6]; T(U)<>T mismatch", "result": "(−20) ° C."}, {"measurement": "Tm", "setting": "[6]; X = A (A-T perfect match)", "result": 68, "unit": "°C"}, {"measurement": "ΔTm, single-base mismatch (X=C, G, T)", "setting": "[6]; range over mismatches", "result": "−16 to −20", "unit": "°C"}, {"measurement": "CD profile / base-stacking at high temperature", "setting": "[4]", "result": "distinct CD profile"}]}]}
